Assay results as given in patent publication US11857596B2, “Animal feed additive and animal feed” (priority 2018, dated 2024).
No end group written: not given here.

Key:
[1] = system: Caco-2 cells (human intestinal epithelial cells); experiment: Membrane strengthening experiment (TER recovery of barrier function after TNF-α); assay type: cell-based; conditions: for function of strengthening the barrier function (membrane-strengthening ability): result in words, FIG. 1A-1H
Clostridium perfringens = assay type: cell-based; set-up: key: “+” to “+++++”: indicates the strength of antibacterial effect. The more “+”, the stronger the effect.; “+” to “+++++”: indicates the strength of antibacterial effect. The more “+”, the stronger the effect.; “+” to “+++++”: indicates the strength of antibacterial effect. The more “+”, the stronger the effect.; “+” to “+++++”: indicates the strength of antibacterial effect. The more “+”, the stronger the effect.; “+” to “+++++”: indicates the strength of antibacterial effect. The more “+”, the stronger the effect.; “ND”: indicates no effect detected (not detected); conditions: Nisin A and Duramycin 1 mg/ml, others 10-fold concentrated culture supernatant of producers
[2] = system: Lactobacillus acidophilus; experiment: Antibacterial spectrum of bacteriocin, spot-on lawn method; assay type: cell-based; set-up: key: “+” to “+++++”: indicates the strength of antibacterial effect. The more “+”, the stronger the effect.; “+” to “+++++”: indicates the strength of antibacterial effect. The more “+”, the stronger the effect.; “+” to “+++++”: indicates the strength of antibacterial effect. The more “+”, the stronger the effect.; “+” to “+++++”: indicates the strength of antibacterial effect. The more “+”, the stronger the effect.; “+” to “+++++”: indicates the strength of antibacterial effect. The more “+”, the stronger the effect.; “ND”: indicates no effect detected (not detected); conditions: Nisin A and Duramycin 1 mg/ml, others 10-fold concentrated culture supernatant of producers
[3] = system: Bifidobacterium thermophilum AJ110569; experiment: as above; assay type: cell-based; set-up: key: “+” to “+++++”: indicates the strength of antibacterial effect. The more “+”, the stronger the effect.; “+” to “+++++”: indicates the strength of antibacterial effect. The more “+”, the stronger the effect.; “+” to “+++++”: indicates the strength of antibacterial effect. The more “+”, the stronger the effect.; “+” to “+++++”: indicates the strength of antibacterial effect. The more “+”, the stronger the effect.; “+” to “+++++”: indicates the strength of antibacterial effect. The more “+”, the stronger the effect.; “ND”: indicates no effect detected (not detected); conditions: Nisin A and Duramycin 1 mg/ml, others 10-fold concentrated culture supernatant of producers
[4] = system: Bacteroides fragilis JCM11019; experiment: as above; assay type: cell-based; set-up: key: “+” to “+++++”: indicates the strength of antibacterial effect. The more “+”, the stronger the effect.; “+” to “+++++”: indicates the strength of antibacterial effect. The more “+”, the stronger the effect.; “+” to “+++++”: indicates the strength of antibacterial effect. The more “+”, the stronger the effect.; “+” to “+++++”: indicates the strength of antibacterial effect. The more “+”, the stronger the effect.; “+” to “+++++”: indicates the strength of antibacterial effect. The more “+”, the stronger the effect.; “ND”: indicates no effect detected (not detected); conditions: Nisin A and Duramycin 1 mg/ml, others 10-fold concentrated culture supernatant of producers
[5] = Chicken growth test (body weight gain and feed conversion ratio); assay type: in vivo, broiler chickens
Salmonella enterica (SE) [6] = experiment: Salmonella infection test in chickens (body weight gain and feed conversion ratio); assay type: in vivo, chickens (broilers); conditions: for BWG / FCR: 0-3 week, SE orally at 2 days of age; for body weight gain effect and feed conversion ratio improvement effect: result in words, Salmonella enterica infected broilers, test feed 21 days
Description: The coated-Tyr and Tyr prepared in the same manner as in Example 2-1 were added to the feed matrix having the composition presented in Table 2 so that the amount of the core material was 200 ppm, to thereby prepare a feed. Broilers at 1 day of age were introduced into a breeding facility for infection test (6 broilers/repeat and 2 repeats/test group), then Salmonella enterica (SE) was orally administered to the broilers at 2 days of age, and the test feed was fed for 21 days to evaluate the body weight gain effect and feed conversion ratio of chickens. Note that a conventional antimicrobial growth promoter, enramycin, was used as a positive control. As enramycin, a commercially available product (“Enramycin F-80” manufactured by Scientific Feed Laboratory Co., Ltd., uncoated) was used as it was.
The results are presented with a negative control of 100. […]
Broilers at 0 days of age were introduced into a breeding facility for infection test (6 broilers/repeat and 2 repeats/test group), then Salmonella enterica (SE) was orally administered to the broilers at 2 days of age, and the test feed was fed for 21 days to evaluate the body weight gain effect and feed conversion ratio. Note that a conventional antimicrobial growth promoter, enramycin, was used as a positive control. As enramycin, a commercially available product (“Enramycin F-80” manufactured by Scientific Feed Laboratory Co., Ltd., uncoated) was used as it was.

[7] = Metabolome analysis of intestinal tract contents and blood; assay type: in vivo, chickens; conditions: metabolome analysis; chicken growth test of 2-3
Text: It is thus considered that coated-Phe and coated-Tyr are assimilated by intestinal bacteria in feces and rapidly metabolized in blood.

[8] = 500 to 1,000 ppm of quercetin added to the feed; cited from earlier work
intestinal microbiota = conditions: cited from earlier work
[9] = system: Lactobacillus acidophilus AJ13778; experiment: Minimum inhibitory concentration, spot-on-lawn method; assay type: cell-based; conditions: indicator strain Lactobacillus acidophilus AJ13778; MRS, 37° C.
[10] = system: Lactobacillus salivarius AJ110152; experiment: as above; assay type: cell-based; conditions: indicator strain Lactobacillus salivarius AJ110152; MRS, 37° C.
[11] = system: Clostridium perfringens AJ3350; experiment: microbe, parasite or virus in culture; assay type: cell-based
[12] = system: Enterococcus faecalis AJ110149; experiment: Minimum inhibitory concentration, spot-on-lawn method; assay type: cell-based; conditions: indicator strain Enterococcus faecalis AJ110149; MRS, 30° C.; ND = no effect detected
Escherichia coli MG1665 = experiment: as above; assay type: cell-based
[13] = system: Bacteroides fragilis JCM11019; experiment: as above; assay type: cell-based; conditions: indicator strain Bacteroides fragilis JCM11019; GAM, 37° C.
[14] = system: Bifidobacterium thermophilum AJ110569; experiment: as above; assay type: cell-based; conditions: indicator strain Bifidobacterium thermophilum AJ110569; GAM, 37° C.
[15] = system: Salmonella enterica AJ2785; experiment: microbe, parasite or virus in culture; assay type: cell-based
Salmonella enterica (SE) [16] = experiment: Salmonella infection test in chickens (body weight gain and feed conversion ratio); assay type: in vivo, chickens (broilers); conditions: Table 5; 0-3 week; addition 10 ppm; SE orally at 2 days of age; negative control = 100
[17] = system: Lactobacillus salivarius AJ110152; experiment: Antibacterial spectrum of bacteriocin, spot-on lawn method; assay type: cell-based; set-up: key: “+” to “+++++”: indicates the strength of antibacterial effect. The more “+”, the stronger the effect.; “+” to “+++++”: indicates the strength of antibacterial effect. The more “+”, the stronger the effect.; “+” to “+++++”: indicates the strength of antibacterial effect. The more “+”, the stronger the effect.; “+” to “+++++”: indicates the strength of antibacterial effect. The more “+”, the stronger the effect.; “+” to “+++++”: indicates the strength of antibacterial effect. The more “+”, the stronger the effect.; “ND”: indicates no effect detected (not detected); conditions: Nisin A and Duramycin 1 mg/ml, others 10-fold concentrated culture supernatant of producers
Escherichia coli MG1655 = experiment: as above; assay type: cell-based; set-up: key: “+” to “+++++”: indicates the strength of antibacterial effect. The more “+”, the stronger the effect.; “+” to “+++++”: indicates the strength of antibacterial effect. The more “+”, the stronger the effect.; “+” to “+++++”: indicates the strength of antibacterial effect. The more “+”, the stronger the effect.; “+” to “+++++”: indicates the strength of antibacterial effect. The more “+”, the stronger the effect.; “+” to “+++++”: indicates the strength of antibacterial effect. The more “+”, the stronger the effect.; “ND”: indicates no effect detected (not detected); conditions: Nisin A and Duramycin 1 mg/ml, others 10-fold concentrated culture supernatant of producers
[18] = system: Enterococcus faecalis AJ110149; experiment: as above; assay type: cell-based; set-up: key: “+” to “+++++”: indicates the strength of antibacterial effect. The more “+”, the stronger the effect.; “+” to “+++++”: indicates the strength of antibacterial effect. The more “+”, the stronger the effect.; “+” to “+++++”: indicates the strength of antibacterial effect. The more “+”, the stronger the effect.; “+” to “+++++”: indicates the strength of antibacterial effect. The more “+”, the stronger the effect.; “+” to “+++++”: indicates the strength of antibacterial effect. The more “+”, the stronger the effect.; “ND”: indicates no effect detected (not detected); conditions: Nisin A and Duramycin 1 mg/ml, others 10-fold concentrated culture supernatant of producers
[19] = Table 4, 0-3 weeks, addition 200 ppm (core material) in feed
[20] = Table 5, addition 200 ppm, negative control = 100
[21] = material conc. 100 uM, comparison value with Ctr (TNFα alone), 24 h
[22] = Table 8, 10 ppm, control group = 100%

duramycin
Recovery ratio (%) ([1]; material conc. 1 uM, TER barrier function recovery, 24 h): 120% | Recovery ratio/ctr ([1]; material conc. 1 uM, comparison value with Ctr (TNFα alone), 24 h): 1.04 | Antibacterial spectrum (strength of antibacterial effect) (Clostridium perfringens): +++++ | Antibacterial spectrum (strength of antibacterial effect) [2]: + | Antibacterial spectrum (strength of antibacterial effect) [3]: ++ | Antibacterial spectrum (strength of antibacterial effect) [4]: +

N[C@@H](Cc1ccc(O)cc1)C(=O)O [Tyrosin, tyrosine]
Recovery ratio/ctr ([1]; 24 h, 20 µM): 1.19 | activity at 20 µM ([1]; Homo sapiens, Caco-2, material conc. 20 uM, TER barrier function recovery, 24 h, read-out: Recovery ratio (%)): 138% | function of strengthening the barrier function (membrane-strengthening ability) [1]: observed to have the function of strengthening the barrier function | BWG [5, 19]: 104% | FCR [5, 19]: 98% | body weight gain effect and feed conversion ratio improvement effect ([5]; result in words, healthy broilers, 0 to 21 days of age): A certain degree of body weight gain effect was confirmed | BWG (Salmonella enterica (SE) [6]; [20]): 96% | FCR (Salmonella enterica (SE) [6]; [20]): 100% | body weight gain effect and feed conversion ratio improvement effect (Salmonella enterica (SE) [6]): no effect | detection in the intestinal tract contents or blood [7]: not detected

O=c1c(O)c(-c2ccc(O)c(O)c2)oc2cc(O)cc(O)c12 [Quercetin, quercetin]
activity at 100 µM ([1]; Homo sapiens, Caco-2, material conc. 100 uM, TER barrier function recovery, 24 h, read-out: Recovery ratio (%)): 138% | Recovery ratio/ctr [1, 21]: 1.23 | function of strengthening the barrier function (membrane-strengthening ability) [1]: observed to have the function of strengthening the barrier function | body weight gain effect (body weight gain efficiency) and feed consumption [8]: did not increase | feed conversion ratio [8]: remained almost unchanged or slightly decreased | effect on the intestinal microbiota (intestinal microbiota): negative effect

enramycin
Recovery ratio (%) ([1]; material conc. 100 uM, TER barrier function recovery, 24 h): 144% | Recovery ratio/ctr [1, 21]: 1.28 | BWG (Salmonella enterica (SE) [6]; [22]): 107% | FCR (Salmonella enterica (SE) [6]; [22]): 98% | Minimum inhibitory concentration [9]: 500 µg/mL | Minimum inhibitory concentration [10]: 500 µg/mL | Minimum inhibitory concentration [11]: 1000 µg/mL | Minimum inhibitory concentration [12]: 4000 µg/mL | Minimum inhibitory concentration (Escherichia coli MG1665): >100000 µg/mL | Minimum inhibitory concentration [13]: 64000 µg/mL | Minimum inhibitory concentration [14]: 500 µg/mL | Minimum inhibitory concentration [15]: >100000 µg/mL | BWG (Salmonella enterica (SE) [16]): 107% | FCR (Salmonella enterica (SE) [16]): 98%

nisin A (ITSISLCTPGCKTGALMGCNMKTATCHCSIHVSK; not fully specified (some residues, bridges); also: lantibiotic (ring and dehydro residues not placed); UniProt P13068 24-57, looked up) [reagent manufactured by Sigma-Aldrich, nisin content 2.5% by mass, balance sodium chloride and denatured milk solids]
function of strengthening the barrier function (membrane-strengthening ability) [1]: observed to have the function of strengthening the barrier function | BWG (Salmonella enterica (SE) [6]; [22]): 101% | FCR (Salmonella enterica (SE) [6]; [22]): 100% | body weight gain effect and feed conversion ratio improvement effect (Salmonella enterica (SE) [6]): no effect | Antibacterial spectrum (strength of antibacterial effect) (Clostridium perfringens): +++++ | Antibacterial spectrum (strength of antibacterial effect) [2]: ++++ | Antibacterial spectrum (strength of antibacterial effect) [17]: +++++ | Antibacterial spectrum (strength of antibacterial effect) [3]: +++++ | Antibacterial spectrum (strength of antibacterial effect) [4]: ++++ | Antibacterial spectrum (strength of antibacterial effect) (Escherichia coli MG1655): ++ | Antibacterial spectrum (strength of antibacterial effect) [18]: +++++
